Measured values: patent publication US11339178B2, “Inhibitors of microbial beta-glucuronidase enzymes and uses thereof” (The University of North Carolina at Chapel Hill, priority 2016, dated 2022)

Assays:
[1] = molecular target: S. agalactiae (SaGUS) β-Glucuronidase (Streptococcus agalactiae serotype V, UniProt Q8E0N2); experiment: biochemical
[2] = molecular target: C. perfringens (CpGUS) β-Glucuronidase (Clostridium perfringens, UniProt Q8XP19); experiment: biochemical
[3] = molecular target: E. coli (EcGUS) β-Glucuronidase (Escherichia coli, UniProt P05804); experiment: In vitro GUS inhibition, PNPG cleavage by purified E. coli GUS; format: biochemical; settings: PNPG substrate, 37° C., 2 hours; NI = no inhibition
Chain of E. coli (EcGUS) β-Glucuronidase (P05804 whole entry): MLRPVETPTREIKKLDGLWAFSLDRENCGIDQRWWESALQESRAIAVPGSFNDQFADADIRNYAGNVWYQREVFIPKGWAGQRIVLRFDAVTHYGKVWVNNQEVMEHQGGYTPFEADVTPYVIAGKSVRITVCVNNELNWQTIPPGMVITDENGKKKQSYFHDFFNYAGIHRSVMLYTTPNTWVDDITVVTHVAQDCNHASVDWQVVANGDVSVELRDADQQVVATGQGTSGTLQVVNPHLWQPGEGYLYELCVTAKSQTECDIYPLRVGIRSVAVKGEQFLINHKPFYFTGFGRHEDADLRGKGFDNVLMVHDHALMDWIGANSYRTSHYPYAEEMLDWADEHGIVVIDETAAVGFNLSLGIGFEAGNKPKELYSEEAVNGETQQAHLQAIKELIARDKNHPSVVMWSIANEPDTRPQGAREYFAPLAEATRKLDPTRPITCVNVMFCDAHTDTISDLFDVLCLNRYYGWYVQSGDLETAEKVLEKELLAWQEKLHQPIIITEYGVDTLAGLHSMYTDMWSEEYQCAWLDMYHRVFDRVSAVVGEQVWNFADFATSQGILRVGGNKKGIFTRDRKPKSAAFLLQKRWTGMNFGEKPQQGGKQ
Method: To assess GUS inhibition, cleavage of p-nitrophenyl-β-D-glucuronide (PNPG) by purified E. coli GUS in the presence of inhibitor was measured. The reaction was performed in 96-well clear-bottom plates at a volume of 50 μL. Each reaction contained 5 μL of 100 nM E. coli GUS, 5 μL of inhibitor at various concentrations, 10 μL of 250 mM HEPES and 250 mM NaCl assay buffer, and 30 μL of 1.5 mM PNPG. The reaction was initiated by addition of PNPG and incubated at 37° C. for 2 hours. End point absorbance values at 410 nm were measured using a PHERAstar Plus microplate reader. The resulting data were fit with a four-parameter logistic log function in SigmaPlot 13.0 to determine IC50 values. IC50 was defined as the concentration of inhibitor that yields a 50% reduction in product formation at equilibrium.

Chain of S. agalactiae (SaGUS) β-Glucuronidase (Q8E0N2 whole entry): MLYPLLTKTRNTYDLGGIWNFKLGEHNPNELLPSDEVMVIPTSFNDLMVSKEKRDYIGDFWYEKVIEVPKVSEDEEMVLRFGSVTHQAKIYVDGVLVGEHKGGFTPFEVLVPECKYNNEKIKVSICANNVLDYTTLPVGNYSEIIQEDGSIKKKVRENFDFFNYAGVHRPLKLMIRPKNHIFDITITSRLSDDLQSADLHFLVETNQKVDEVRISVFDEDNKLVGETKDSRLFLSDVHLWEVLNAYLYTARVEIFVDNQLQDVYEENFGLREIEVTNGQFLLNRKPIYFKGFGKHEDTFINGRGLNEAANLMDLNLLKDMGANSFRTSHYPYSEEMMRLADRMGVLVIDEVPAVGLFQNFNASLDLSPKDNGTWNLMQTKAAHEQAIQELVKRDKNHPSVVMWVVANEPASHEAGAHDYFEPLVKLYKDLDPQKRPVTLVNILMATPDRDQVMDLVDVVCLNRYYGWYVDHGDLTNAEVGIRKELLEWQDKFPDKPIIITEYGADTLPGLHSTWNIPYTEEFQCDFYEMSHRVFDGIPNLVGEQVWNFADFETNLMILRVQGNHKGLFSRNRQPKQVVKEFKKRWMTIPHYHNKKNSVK
Chain of C. perfringens (CpGUS) β-Glucuronidase (Q8XP19 whole entry, looked up): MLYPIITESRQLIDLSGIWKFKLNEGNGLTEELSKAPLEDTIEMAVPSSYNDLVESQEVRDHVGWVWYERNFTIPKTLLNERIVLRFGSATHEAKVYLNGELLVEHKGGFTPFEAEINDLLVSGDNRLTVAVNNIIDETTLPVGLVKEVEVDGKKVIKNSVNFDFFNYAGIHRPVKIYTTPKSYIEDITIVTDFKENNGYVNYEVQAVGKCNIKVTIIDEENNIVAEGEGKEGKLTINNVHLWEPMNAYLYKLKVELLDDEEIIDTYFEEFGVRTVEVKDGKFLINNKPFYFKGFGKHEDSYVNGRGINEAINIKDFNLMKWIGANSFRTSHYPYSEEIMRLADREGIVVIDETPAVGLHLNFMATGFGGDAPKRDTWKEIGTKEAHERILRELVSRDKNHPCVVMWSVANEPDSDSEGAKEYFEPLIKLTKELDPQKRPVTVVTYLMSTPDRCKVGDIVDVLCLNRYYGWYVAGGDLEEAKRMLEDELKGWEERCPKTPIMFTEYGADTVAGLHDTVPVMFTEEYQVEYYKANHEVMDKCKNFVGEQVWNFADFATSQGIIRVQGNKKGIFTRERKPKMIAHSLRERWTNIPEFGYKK

CN1CCN(c2nnnc3c2sc2nc(N4CCOCC4)c4c(c23)CCCC4)CC1 [Compound 2]
IC50 [1]: 22000 ± 7000 nM | IC50 [2]: 14300 ± 300 nM

NN1CCN(c2nnnc3c2sc2nc(N4CCOCC4)c4c(c23)CCCC4)CC1 [Compound 3]
IC50 [3]: 5000 ± 500 nM | IC50 [1]: 6700 ± 400 nM | IC50 [2]: 4500 ± 200 nM

C1CCc2c(c(N3CCOCC3)nc3sc4c(NC5CCNCC5)nnnc4c23)C1 [Compound 4]
IC50 [1]: 70000 ± 20000 nM | IC50 [2]: 5700 ± 600 nM

C1CCc2c(c(N3CCOCC3)nc3sc4c(N5CC6CC5CN6)nnnc4c23)C1 (stereo not drawn) [Compound 5]
IC50 [1]: 2700 ± 500 nM | IC50 [2]: 4500 ± 300 nM

C[C@@H]1CN(c2nnnc3c2sc2nc(N4CCOCC4)c4c(c23)CCCC4)CCN1 [Compound 6]
IC50 [1]: 550 ± 70 nM | IC50 [2]: 3900 ± 100 nM

C[C@H]1CN(c2nnnc3c2sc2nc(N4CCOCC4)c4c(c23)CCCC4)CCN1 [Compound 7]
IC50 [1]: 550 ± 60 nM | IC50 [2]: 4200 ± 300 nM

C1CCc2c(c(N3CCOCC3)nc3sc4c(N5CCCNCC5)nnnc4c23)C1 [Compound 8]
IC50 [1]: 5000 ± 1000 nM | IC50 [2]: 13700 ± 600 nM

C1CCc2c(c(N3CCNCC3)nc3sc4c(N5CCNCC5)nnnc4c23)C1 [Compound 12]
IC50 [1]: 63 ± 6 nM | IC50 [2]: 120 ± 20 nM

C1CCN(c2nc3sc4c(N5CCNCC5)nnnc4c3c3c2CCCC3)CC1 [Compound 13]
IC50 [1]: 180 ± 20 nM | IC50 [2]: 350 ± 20 nM

C1CCC(Nc2nc3sc4c(N5CCNCC5)nnnc4c3c3c2CCCC3)CC1 [Compound 14]
IC50 [1]: 320 ± 50 nM | IC50 [2]: 480 ± 10 nM

CN(C)c1nc2sc3c(N4CCNCC4)nnnc3c2c2c1CCCC2 [Compound 15]
IC50 [1]: 62 ± 5 nM | IC50 [2]: 180 ± 6 nM

CNc1nc2sc3c(N4CCNCC4)nnnc3c2c2c1CCCC2 [Compound 16]
IC50 [3]: 70 ± 10 nM | IC50 [1]: 39 ± 8 nM | IC50 [2]: 180 ± 10 nM

c1ccc(CNc2nc3sc4c(N5CCNCC5)nnnc4c3c3c2CCCC3)cc1 [Compound 17]
IC50 [1]: 90 ± 20 nM | IC50 [2]: 290 ± 10 nM

c1cc2c(nc1N1CCOCC1)sc1c(N3CCNCC3)nnnc12 [Compound 19]
IC50 [1]: 640 ± 60 nM | IC50 [2]: 220 ± 20 nM

c1nc(N2CCNCC2)c2sc3nc(N4CCOCC4)ccc3c2n1 [Compound 20]
IC50 [3]: 130 ± 10 nM | IC50 [1]: 690 ± 30 nM | IC50 [2]: 53 ± 4 nM

CNc1nc(N2CCNCC2)c2sc3nc(N4CCOCC4)ccc3c2n1 [Compound 21]
IC50 [1]: 340 ± 50 nM | IC50 [2]: 100 ± 10 nM

c1ccc(-c2ccc3c(n2)sc2c(N4CCNCC4)nnnc23)cc1 [Compound 22]
IC50 [1]: 700 ± 100 nM | IC50 [2]: 230 ± 30 nM

c1ccc(-c2ccc3c(n2)sc2c(N4CCNCC4)ncnc23)cc1 [Compound 23]
IC50 [1]: 550 ± 70 nM | IC50 [2]: 440 ± 40 nM

CNc1nc(N2CCNCC2)c2sc3nc(-c4ccccc4)ccc3c2n1 [Compound 24]
IC50 [1]: 480 ± 30 nM | IC50 [2]: 450 ± 10 nM

CN(C)c1nc(N2CCNCC2)c2sc3nc(-c4ccccc4)ccc3c2n1 [Compound 25]
IC50 [1]: 270 ± 30 nM | IC50 [2]: 160 ± 20 nM

OCCNc1nc(N2CCNCC2)c2sc3nc(-c4ccccc4)ccc3c2n1 [Compound 26]
IC50 [1]: 490 ± 60 nM | IC50 [2]: 410 ± 40 nM

CN(C)c1ccc2c(n1)sc1c(N3CCNCC3)nnnc12 [Compound 27]
IC50 [1]: 1000 ± 200 nM | IC50 [2]: 220 ± 20 nM

CNc1nc(N2CCNCC2)c2sc3nc(N(C)C)ccc3c2n1 [Compound 28]
IC50 [1]: 500 ± 200 nM | IC50 [2]: 280 ± 50 nM

CNc1ccc2c(n1)sc1c(N3CCNCC3)nc(NC)nc12 [Compound 29]
IC50 [1]: 550 ± 70 nM | IC50 [2]: 660 ± 90 nM

c1cnc2sc3c(N4CCNCC4)ncnc3c2c1 [Compound 30]
IC50 [1]: 3000 ± 2000 nM | IC50 [2]: 577 ± 9 nM

CNc1nc(N2CCNCC2)c2sc3ncccc3c2n1 [Compound 31]
IC50 [1]: 2000 ± 1500 nM | IC50 [2]: 900 ± 300 nM

CC1CN(c2nnnc3c2sc2nc(N4CCOCC4)c4c(c23)CCCC4)CCN1 (stereo not drawn) [Compound 44]
IC50 [3]: 5400 ± 600 nM

COc1nc(N2CCNCC2)c2sc3nc(-c4ccccc4)ccc3c2n1 [Compound 45]
IC50 [3]: 140 ± 8 nM

c1cnc2sc3c(N4CCNCC4)nnnc3c2c1 [Compound 46]
IC50 [3]: 1400 ± 40 nM

Clc1nc(N2CCNCC2)c2sc3nc(N4CCOCC4)ccc3c2n1 [Compound 47]
IC50 [3]: 30 ± 3 nM

Fc1ccc(CNc2nc3sc4c(N5CCNCC5)nnnc4c3c3c2CCCC3)cc1 [Compound 48]
IC50 [3]: 208 ± 3 nM

CC1(C)CCc2c(N3CCOCC3)nc3sc4c(N5CCNCC5)nnnc4c3c2C1 [Compound 49]
IC50 [3]: 620 ± 50 nM

CN(C)c1nc2sc3c(NCCN)nnnc3c2c2c1CCCC2 [Compound 50]
IC50 [3]: 12000 ± 2000 nM

Clc1nc(N2CCNCC2)c2sc3nc(N4CCOCC4)c4c(c3c2n1)CCCC4 [Compound 51]
IC50 [3]: 900 ± 60 nM

C[N+]1(C)CCN(c2nnnc3c2sc2nc(N4CCOCC4)c4c(c23)CCCC4)CC1 [Compound 52]
IC50 [3]: 6000 ± 100 nM

C1CCc2c(c(N3CCOCC3)nc3sc4c(N5CCNCC5)nnnc4c23)C1 [Inh9, reference compound]
IC50 [1]: 117 nM | IC50 [2]: 154 nM
